From patent US7166612B2, “Methods for reducing platelet activation platelet aggregaton or thrombosis” (Beth Israel Deaconess Medical Center, priority 2001, dated 2007)

Key:
[1] = test system: platelet F-actin assembly; assay: F-actin assembly (FITC-phalloidin, flow cytometry); assay type: cell-based; settings: in words
Source text: To determine whether or not the effects of the pyridazinone compound were limited to inhibition of alpha-granule secretion, the ability of the compound to inhibit F-actin assembly and aIIbβ3 activation was examined. F-actin assembly was detected using FITC-phalloidin and quantified by flow cytometry (Winokur et al., 1995, Blood 85, 1796–804; Oda et al., 1992, Blood 79, 920–7).

[2] = test system: thromboemboli from laser-induced thrombi; assay: thromboembolization from laser-induced thrombi (intravital videomicroscopy); assay type: in vivo, mouse
Method: (A) Thromboembolic events distal from the thrombus were captured using quantitative intravital fluorescence videomicroscopy with high temporal resolution( (111 frames/second) and the total amount of thromboembolization was calculated by determining the total fluorescence intensity of the fluorescently labeled platelets in thromboemboli. (B) Thromboembolization was recorded before infusion of pyridazinone compound. Platelet accumulation into thrombus is indicated by the gray line. Thromboembolism from the same thrombus is measured over time and is indicated by black bars. Each black bar represents a single thromboembolic event of the indicated fluorescent intensity.
Under these conditions, a dynamic thrombus that undergoes continuous cyclic embolization and re-accumulation is observed. The degree of embolization in an untreated mouse can be quantified using software for image analysis, e.g., BioQuant True Color Windows (Biometrics, Nashville, Tenn.), as described in Rosen et al., 2001, supra. […]
Using quantitative intravital fluorescence videomicroscopy with high temporal resolution, thromboemboli were detected and the total amount of fluorescence of the thromboemboli was measured (FIG. 11A). For this analysis, thromboembolus was defined as a platelet aggregate with a fluorescent intensity two standard deviations above the maximum background fluorescence of the arteriole before injury. […]

[3] = test system: laser-induced thrombi in cremaster arterioles; assay type: in vivo
Source text: A preferred animal model involves intravital microscopy of laser-induced thrombi. The method is described by Rosen et al., 2001, Am J Pathol 158, 1613–1622, which is incorporated herein by reference. Minor variations of that method were employed as described below.
Experimental mice are pre-anesthetized and surgically prepared. A tracheal tube is placed to facilitate breathing and the jugular vein is canulated to allow for maintenance of anesthetic and introduction of compound. The cremaster muscle is then exteriorized. The muscle is affixed over a glass slide, allowing illumination from below. A steady drip of a sodium-bicarbonate buffered salt solution is maintained throughout the experiment to keep the exposed muscle moist. Blood flow in the muscle is visualized using a 40× water immersion lens and epi-illuminated with an appropriately filtered light source. Alexa 488-labeled anti-mouse CD41 antibody is injected through the jugular canulus to label platelets in vivo.
Thrombosis is initiated by damaging the vessel wall (of a 30 μm vessel) with a laser pulse from a MicroPoint LASER attached to the microscope. A LASER pulse is delivered, causing damage in an area smaller than 1 μm. The recruitment of platelets to the thrombus is then monitored by the accumulation of (activated) Alexa 488-labeled platelets at the ablation site using fluorescence microscopy, and the process is recorded digitally. The method thus permits in vivo analysis of platelet activation as measured by platelet aggregation and thrombosis.
The degree of embolization in an untreated mouse can be quantified using software for image analysis, e.g., BioQuant True Color Windows (Biometrics, Nashville, Tenn.), as described in Rosen et al., 2001, supra. The software package permits the determination of the “integrated optical density” or IOD of the thrombus.
Using quantitative intravital fluorescence videomicroscopy with high temporal resolution (111 images/second), the effect of PDE3 inhibition on the platelet recruitment into thrombi was directly observed over time. Platelets were fluorescently labeled by infusing rat-anti-mouse CD41 and Alexa 488-anti-rat IgG through a cannulated jugular vein. The cremaster microvasculature was exposed and mapped and suitable arteriole segments were selected for laser-induced injury. A series of control injuries were generated prior to infusion of the inhibitory compound. The power and the number of laser pulses required to generate each thrombus was recorded. Platelet accumulation to the thrombi following laser ablation was recorded using digital videomicroscopy. The thrombus total fluorescence in each frame of the videos was analyzed using Slidebook software for digital videomicroscopy. The pyridazinone compound was then infused. Following a 15 minute incubation, a series of experimental injuries were generated 250 μm proximal, with relationship to blood flow, of the first injury and the resultant thrombi were recorded. The power and the number of pulses required to induce the control thrombus was used to induce the experimental thrombus. The control and experimental thrombi constituting a pair were compared for statistical analysis. The total fluorescence intensity of the thrombi before and after the infusion of pyridazinone compound was recorded.
Images from a representative experiment of the recruitment of fluorescently-labeled […] platelets into a growing thrombus over time is shown in FIG. 9A.

recombinant human PDE2 = recombinant human PDE2 (Homo sapiens, UniProt O00408); assay: phosphodiesterase inhibition, PDE2; assay type: biochemical; settings: up to 1 μM, in words
Method: Intracellular cAMP generated by adenylyl cyclase in platelets is actively hydrolyzed by phosphodiesterase. […] Human platelets express PDE2, PDE3, and PDE5. Therefore, the compound was tested for its inhibitory effect on these phosphodiesterases using methods as described in Example 3.

Sequence of recombinant human PDE2 (O00408 whole entry): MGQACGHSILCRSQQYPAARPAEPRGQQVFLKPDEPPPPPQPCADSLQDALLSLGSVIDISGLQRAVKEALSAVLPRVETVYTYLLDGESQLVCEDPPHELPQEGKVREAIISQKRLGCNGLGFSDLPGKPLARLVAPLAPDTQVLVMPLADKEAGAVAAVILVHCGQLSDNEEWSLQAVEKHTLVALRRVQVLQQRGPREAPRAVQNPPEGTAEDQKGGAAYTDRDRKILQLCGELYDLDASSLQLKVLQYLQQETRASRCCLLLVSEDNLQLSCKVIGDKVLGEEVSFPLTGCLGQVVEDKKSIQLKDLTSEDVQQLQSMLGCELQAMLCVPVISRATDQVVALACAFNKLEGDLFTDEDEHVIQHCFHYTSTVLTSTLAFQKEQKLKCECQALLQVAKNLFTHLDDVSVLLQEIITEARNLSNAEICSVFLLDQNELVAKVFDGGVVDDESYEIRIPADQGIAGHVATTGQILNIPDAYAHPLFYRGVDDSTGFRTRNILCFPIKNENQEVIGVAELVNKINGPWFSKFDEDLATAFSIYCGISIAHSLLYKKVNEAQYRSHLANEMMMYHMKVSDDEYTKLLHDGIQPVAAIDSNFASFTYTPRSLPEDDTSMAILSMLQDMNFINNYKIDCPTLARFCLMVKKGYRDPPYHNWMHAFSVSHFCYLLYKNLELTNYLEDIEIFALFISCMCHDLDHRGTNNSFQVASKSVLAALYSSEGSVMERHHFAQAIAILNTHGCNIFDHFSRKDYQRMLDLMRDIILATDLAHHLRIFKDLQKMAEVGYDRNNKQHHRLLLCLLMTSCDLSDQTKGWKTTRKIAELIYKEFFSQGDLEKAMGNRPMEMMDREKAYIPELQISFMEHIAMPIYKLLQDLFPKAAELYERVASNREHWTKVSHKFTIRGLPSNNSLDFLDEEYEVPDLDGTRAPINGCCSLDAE

## CC1CC(=O)NN=C1c1ccc(N)c([N+](=O)[O-])c1 (centres unmarked) [6-(4-Amino-3-nitro-phenyl)-5-methyl-4,5-dihydro-2H-pyridazin-3-one]
[1]
  SFLLR-induced F-actin assembly: interferes with SFLLR-induced cytoskeleton rearrangement
[2]; 1.2 mg/kg, in words
  thromboembolization after infusion: significantly reduced
[2]; after injection of compound
  reduction of embolization: greater than 80%
[3]; 0.6 mg/kg (P<0.05) and 1.2 mg/kg (P<0.01), in words
  stabilized platelet accumulation: dose-dependent inhibition
[3]; 0.6 and 1.2 mg/kg, P<0.05, in words
  maximum platelet accumulation compared to absence of compound: statistically significant decrease
[3]; after laser injury, not affected by PDE3 inhibition, 0.3 and 1.2 mg/kg
  time to achieve the maximum rate of platelet recruitment: approximately 27 seconds
Recombinant human PDE2; listed as Pyridazinone compound
  inhibition of recombinant human PDE2: No significant inhibition
Recombinant human PDE2; listed as pyridazinone compound
  inhibition of recombinant human PDE2: little inhibition
